Test results from article PMC5656713 (Advances in Therapy, 2017).
Like-named read-outs stand apart in the source and are kept apart here.

Assays:
clinical [1] = settings: male, human, in vivo
[2] = male, human, in vivo
[3] = cited from earlier work
glucocorticoid receptor = settings: cited from earlier work
clinical [4] = settings: male, human, in vivo, 600 mg
plasma ACTH = assay: Fasting plasma ACTH during mifepristone alone and plus ketoconazole; format: in vivo, human; settings: day 13, predose, after mifepristone 600 mg alone
Safety and tolerability = format: in vivo, human
[5] = with concomitant ketoconazole 200 mg twice daily vs mifepristone 600 mg alone
serum cortisol = assay: Fasting serum cortisol during mifepristone alone and plus ketoconazole; format: in vivo, human; settings: day 13, predose, after mifepristone 600 mg alone

Tmax (clinical [1]; 200 mg) [h]	AUC(0-t) (clinical [1]; AUC (AUC0–12) GLSM) [ng·h/mL]	Mean predose trough concentrations [2] [ng/mL]	half-life (clinical [4]) [h]	increase in systemic exposure based on GMR, AUC0–24 [5] [%]	Structure (SMILES)	half-life [3]	affinity to the glucocorticoid receptor compared with 100% for mifepristone (glucocorticoid receptor) [%]	Mean ACTH (plasma ACTH) [pg/mL]	subjects with at least one treatment-emergent AE (Safety and tolerability; coadministration of mifepristone and ketoconazole (period 2), 8/14) [%]	subjects with at least one treatment-emergent AE (Safety and tolerability; mifepristone alone (period 1), 9/16) [%]	serious AEs (Safety and tolerability; whole study, mifepristone alone and plus ketoconazole)	Mean serum cortisol (serum cortisol) [µg/dL]
3	37700	1353.07 to 1615.64	–	–	CC(=O)N1CCN(c2ccc(OCC3COC(Cn4ccnc4)(c4ccc(Cl)cc4Cl)O3)cc2)CC1 (stereo not drawn) [Ketoconazole]	–	–	–	–	–	–	–
–	–	–	> 64	38	CC#C[C@]1(O)CC[C@H]2[C@@H]3CCC4=CC(=O)CCC4=C3[C@@H](c3ccc(N(C)C)cc3)C[C@@]21C [Mifepristone]	~ 85 h	100	148	57.1	56.3	No serious AEs	41.9
